Laboratory results from US7816339B2, “Treatments for Flaviviridae virus infection” (priority 2005, dated 2010).

How the values were obtained:
Type in all cases: cell-based
replicon cells = experiment: Cell toxicity assay (MTS) on replicon cells; details: for TI: CC50/EC50 in 5-2 cells: ratio CC50/EC50, 5-2 cells; for CC50: MTS assay on replicon cells, read-out: CC50: drug dose necessary to reduce the MTS signal to 50% of that of no drug control
Experimental: (§1) Cell toxicity assay. The toxicity of compounds on the replicon cells were measured by MTS assay following manufacturer's instructions (Promega). Briefly, 20 μl of CellTiter 96®RAQueous One Solution Reagent were added to each well of the 96-well plate containing 100 μl of culture medium. The plates were incubated for 30-60 minutes before reading OD by DYNEX MRX.
(§2) IC50: drug dose necessary to reach a 2-fold decrease in replicon RNA level. IC90: drug dose necessary to reach a 10-fold decrease in replicon RNA level EC50: drug dose necessary to reach a 2-fold decrease in luciferase signal. EC90: drug dose necessary to reach a 10-fold reduction in luciferase signal. CC50: drug dose necessary to reduce the MTS signal to 50% of that of no drug control TI: CC50/EC50 in 5-2 cells. All units are μM.

[1] = Cell toxicity assay (MTS) on replicon cells; details: human; MTS assay on replicon cells; read-out: CC50: drug dose necessary to reduce the MTS signal to 50% of that of no drug control
Experimental: as §1, §2

[2] = system: replicon (luciferase signal), luciferase replicon cell line; experiment: Dose-response luciferase assay in replicon cells; details: 2 days incubation, 0.5% DMSO, 10% fetal bovine serum; for EC50: 48 h, read-out: EC50: drug dose necessary to reach a 2-fold decrease in luciferase signal
Experimental: (§3) Cell Culture. Cells of the luciferase replicon cell line (Vrolijk et al., J. Virol. Methods 110:201-209 (2003)) was grown in Dulbecco's minimal essential medium (DMEM) supplemented with 2 mM glutamine, non-essential amino acids (NEAA), 10 mM HEPES, 0.075% sodium bicarbonate, 100 U/ml penicillin and 100 μg/mL streptomycin, and 10% fetal bovine serum. To maintain the selection for replicon, 0.3 mg/mL of G418 were added to the culture media.
Dose-Response and Luciferase Assays. Replicon cells were seeded at 5000 cells/well in 96-well collagen 1-coated Biocoat plates (Becton Dickinson; Palo Alto, Calif.). Twenty-four hrs post-seeding, compounds (see Table 1 below) were added to replicon cells. The final concentration of DMSO was 0.5%, fetal bovine serum was 10%, and G418 was not added. The cells were incubated with the compounds for 2 days, at which point the cells were washed with PBS and lysed in 40 μl Glo Lysis Buffer (Promega; Madison, Wis.). 20 μl of lysates were mixed with 100 μl Luciferase Assay Reagent (Promega) and read on a Microtiter Plate Luminometer MLX (DYNEX Technologies; Chantilly, Va.). The fold of reduction in luciferase signal compared to no compound control was plotted against drug concentration and fitted to the sigmoid dose response model using PRISM software (Graphpad Software Inc.; San Diego, Calif.).
as §2

[3] = system: replicon RNA (amplicon in NS5B), luciferase replicon cell line; experiment: Taqman assay of replicon RNA level in replicon cells; details: Taqman real-time PCR, 2 days incubation; for IC50: 48 h, GADPH RNA as endogenous control, read-out: IC50: drug dose necessary to reach a 2-fold decrease in replicon RNA level
Experimental: as §3
Taqman Assay Method. Replicon cells were seeded at 4000 cells/well in 96-well collagen 1-coated Biocoat Plates (Becton Dickinson). Twenty-four hours post-seeding, compounds were added to replicon cells. The final concentration of DMSO was 0.5%, fetal bovine serum was 10%, and no G418 was added. Cells were incubated with compounds for 2 days, at which point the cells were washed with PBS and lysed in 1× cell lysis buffer (Ambion). The replicon RNA level was measured using real time PCR (Taqman assay). The amplicon was located in NS5B. The PCR primers were 5B.2F, ATGGACAGGCGCCCTGA; 5B.2R, […]; the probe sequence was FAM-labeled CACGCCATGCGCTGCGG. GADPH RNA was used as an endogenous control and was amplified in the same reaction as NS5B (multiplex PCR) using primers and VIC-labeled probe recommended by the manufacturer (PE Applied Biosystem). The real-time RT-PCR reactions were run on the ABI PRISM 7900HT Sequence Detection System using the following program: 48° C. for 30 minutes, 95° C. for 10 minutes, 40 cycles of 95° C. for 15 seconds, 60° C. for 1 minute. The ACT values (CT5B-CTGADPH) were plotted against drug concentration and fitted to the sigmoid dose response model using SAS system (SAS Institute, Inc.) or PRISM software (Graphpad Software, Inc.). IC50 was the drug dose response necessary to achieve an increase of 1 in ΔCT over the projected baseline. IC90 was the drug dose response necessary to achieve an increase of 3.2 over the baseline. All Taqman reagents were from PE Applied Biosystem.
as §2

Structure (SMILES)	TI: CC50/EC50 in 5-2 cells (replicon cells)	CC50 at 2 days [1]	EC50 [2]	EC90: drug dose necessary to reach a 10-fold reduction in luciferase signal [2]	IC50 [3]	IC90: drug dose necessary to reach a 10-fold decrease in replicon RNA level [3]	CC50 (replicon cells)
O=c1nc(/N=C/N2CCOCC2)ccn1[C@@H]1O[C@H](CO)C(O)C1O (stereo in doubt) [XII, N^4-[Morpholinomethylene]arabinocytidine]	>500	> 10 µM	20 nM	1.5 μM	> 10 µM	>10 μM	–
Nc1ccn([C@@H]2O[C@H](CO)[C@@H](O)[C@@H]2O)c(=O)n1 [Cytarabine, reference compound]	>200	> 10 µM	50 nM	4 μM	~10 µM	>10 μM	–
NC(=O)c1ncn([C@@H]2O[C@H](CO)[C@@H](O)[C@H]2O)n1 [Ribavirin, 1-β-D-ribofuranosyl-1H-1,2,4-triazole-3-carboxamide, reference compound]	~25	~500 µM	20000 nM	80 μM	40 to 100 µM	not reached	–
CC(C)N(C=Nc1ccn([C@@H]2O[C@H](CO)[C@@H](O)[C@@H]2O)c(=O)n1)C(C)C [X, N^4-[(Diisopropylamino)methylene]arabinocytidine]	>300	–	–	2 μM	–	>10 μM	> 10 µM
O=c1nc(N=CN2CCCCC2)ccn1[C@@H]1O[C@H](CO)[C@@H](O)[C@@H]1O [XI, N^4-[Piperidinomethylene]arabinocytidine]	>100	–	–	8 μM	–	>10 μM	> 10 µM
O=c1nc(N=CN2CCCC2)ccn1[C@@H]1O[C@H](CO)[C@@H](O)[C@@H]1O [XIII, N^4-[Pyrrolidinomethylene]arabinocytidine]	>100	–	–	5 μM	–	>10 μM	> 10 µM
